In brackets after ≈: the same amount, converted by molar mass.
Target: T1, Heat shock protein HSP90 (Homo sapiens) (UniProt P07900+P08238)
Test: Inhibition of HSP90 in human HCT-116 cells assessed as reduction in Erk protein expression after 24 hrs by Western blot analysis
Type: cell-based
Conditions: dose 0.01-3 µM

Row | Compound | inhibition
1 | COCCOc1ncc2c(n1)CCN(C(=O)c1cc(C(C)C)c(O)cc1O)C2 | Dose-dependent effect

Test system: not listed separately
Test: AUC (0 to t) in rat at 10 mg/kg, iv measured upto 24 hrs by LC-MS/MS analysis
Type: ADME, organism-based
Set-up: route intravenous, dose 10 mg/kg, time <=24
Conditions: in vivo

Row | Compound | AUC(0-t) at 24 h
2 | COCCOc1ncc2c(n1)CCN(C(=O)c1cc(C(C)C)c(O)cc1O)C2 | 0.757 µg·h/mL

Test system: MKN-28
Test: Antiproliferative activity against human MKN-28 assessed as reduction in cell viability incubated for 72 hrs by MTT assay
Type: functional, cell-based
Conditions: MKN-28, 72 h

Row | Compound | IC50
3 | COCCOc1ncc2c(n1)CCN(C(=O)c1cc(C(C)C)c(O)cc1O)C2 | 0.325 µM

Test system: A549
Test: Antiproliferative activity against human A549 assessed as reduction in cell viability incubated for 72 hrs by MTT assay
Type: functional, cell-based
Conditions: A549, 72 h

Row | Compound | IC50
4 | COCCOc1ncc2c(n1)CCN(C(=O)c1cc(C(C)C)c(O)cc1O)C2 | 0.168 µM

Test system: MV4-11
Test: Antiproliferative activity against human MV4-11 assessed as reduction in cell viability incubated for 72 hrs by MTT assay
Type: functional, cell-based
Conditions: MV4-11, 72 h

Row | Compound | IC50
5 | COCCOc1ncc2c(n1)CCN(C(=O)c1cc(C(C)C)c(O)cc1O)C2 | 0.031 µM

Test system: not listed separately
Test: Apparent clearance during terminal phase in rat at 50 mg/kg, po measured upto 24 hrs by LC-MS/MS analysis
Type: ADME, organism-based
Conditions: in vivo, read-out: CLz/F (converted)

Row | Compound | CL/F
6 | COCCOc1ncc2c(n1)CCN(C(=O)c1cc(C(C)C)c(O)cc1O)C2 | 199 L/h/kg

Test system: MCF7
Test: cells
Conditions: Homo sapiens, MCF7, 72 h

Row | Compound | IC50
7 | COCCOc1ncc2c(n1)CCN(C(=O)c1cc(C(C)C)c(O)cc1O)C2 | 0.12 µM

Target: Heat shock protein HSP 90-alpha (Homo sapiens, UniProt P07900)
Test: Displacement of FITC-geldanamycin from N-terminal HSP90alpha (unknown origin) after 30 mins by fluorescence polarization competitive binding assay
Conditions: not given

Row | Compound | IC50
8 | COCCOc1ncc2c(n1)CCN(C(=O)c1cc(C(C)C)c(O)cc1O)C2 | 0.019 µM

Test system: not listed separately
Test: Distribution coefficient, logD of compound at pH 7.4
Type: physicochemical
Conditions: octanol/water

Row | Compound | logD
9 | COCCOc1ncc2c(n1)CCN(C(=O)c1cc(C(C)C)c(O)cc1O)C2 | 2.14

Target: T1, Heat shock protein HSP90 (Homo sapiens)
Test: Inhibition of HSP90 in human HCT-116 cells assessed as reduction in AKT protein expression after 24 hrs by Western blot analysis
Type: cell-based
Conditions: dose 0.01-3 µM

Row | Compound | inhibition
10 | COCCOc1ncc2c(n1)CCN(C(=O)c1cc(C(C)C)c(O)cc1O)C2 | Dose-dependent effect

Test system: not listed separately
Test: Selectivity ratio of IC50 for inhibition of FITC-geldanamycin binding to N-terminal GRP94 (unknown origin) to IC50 for inhibition of FITC-geldanamycin binding to N-terminal HSP90alpha (unknown origin)
Conditions: not given

Row | Compound | Ratio IC50
11 | COCCOc1ncc2c(n1)CCN(C(=O)c1cc(C(C)C)c(O)cc1O)C2 | 10.4

Target: T1, Heat shock protein HSP90 (Homo sapiens)
Test: Inhibition of HSP90 in human HCT-116 cells assessed as reduction in phosphorylated Erk after 24 hrs by Western blot analysis
Type: cell-based
Conditions: dose 0.01-3 µM

Row | Compound | inhibition
12 | COCCOc1ncc2c(n1)CCN(C(=O)c1cc(C(C)C)c(O)cc1O)C2 | Dose-dependent effect

Test system: not listed separately
Test: Metabolic stability in human liver microsomes assessed as parent compound remaining at 1 uM preincubated for 5 mins followed by NADPH addition and measured up to 120 mins by LC-MS/MS analysis
Type: ADME, Microsome
Conditions: 2 h, time <=125 min

Row | Compound | Stabilty
13 | COCCOc1ncc2c(n1)CCN(C(=O)c1cc(C(C)C)c(O)cc1O)C2 | 81.5%

Test system: SK-BR-3
Test: Antiproliferative activity against human SK-BR-3 assessed as reduction in cell viability incubated for 72 hrs by MTT assay
Type: functional, cell-based
Conditions: SK-BR-3, 72 h

Row | Compound | IC50
14 | COCCOc1ncc2c(n1)CCN(C(=O)c1cc(C(C)C)c(O)cc1O)C2 | 0.175 µM

Test system: HCT-116
Test: cells
Conditions: Homo sapiens, HCT-116, 72 h
Description: Antiproliferative activity against human HCT-116 cells assessed as reduction in cell viability incubated for 72 hrs by MTT assay

Row | Compound | IC50
15 | COCCOc1ncc2c(n1)CCN(C(=O)c1cc(C(C)C)c(O)cc1O)C2 | 0.17 µM

Test system: MDA-MB-231
Test: Antiproliferative activity against human MDA-MB-231 assessed as reduction in cell viability incubated for 72 hrs by MTT assay
Type: functional, cell-based
Conditions: MDA-MB-231, 72 h

Row | Compound | IC50
16 | COCCOc1ncc2c(n1)CCN(C(=O)c1cc(C(C)C)c(O)cc1O)C2 | 0.129 µM

Target: T1, Heat shock protein HSP90 (Homo sapiens)
Test: Inhibition of HSP90 in human HCT-116 cells assessed as induction of HSP70 expression after 24 hrs by Western blot analysis
Type: cell-based
Conditions: dose 0.01-3 µM

Row | Compound | inhibition
17 | COCCOc1ncc2c(n1)CCN(C(=O)c1cc(C(C)C)c(O)cc1O)C2 | Dose-dependent effect

Test system: K562
Test: Antiproliferative activity against human K562 assessed as reduction in cell viability incubated for 72 hrs by MTT assay
Type: functional, cell-based
Conditions: K562, 72 h

Row | Compound | IC50
18 | COCCOc1ncc2c(n1)CCN(C(=O)c1cc(C(C)C)c(O)cc1O)C2 | 0.109 µM

Test system: not listed separately
Test: Half-life in rat at 50 mg/kg, po measured upto 24 hrs by LC-MS/MS analysis
Type: ADME, organism-based
Conditions: in vivo

Row | Compound | half-life
19 | COCCOc1ncc2c(n1)CCN(C(=O)c1cc(C(C)C)c(O)cc1O)C2 | 7.4 h

Test system: not listed separately
Test: Intrinsic aqueous solubility of the compound
Type: physicochemical
Conditions: not given

Row | Compound | solubility
20 | COCCOc1ncc2c(n1)CCN(C(=O)c1cc(C(C)C)c(O)cc1O)C2 | 0.14 mg/mL (≈ 361 µM)

Test system: not listed separately
Test: Permeability of the compound at pH 7.4 by PAMPA
Type: ADME
Conditions: read-out: permeability

Row | Compound | Papp
21 | COCCOc1ncc2c(n1)CCN(C(=O)c1cc(C(C)C)c(O)cc1O)C2 | 556 nm/s

Target: Endoplasmin (Homo sapiens, UniProt P14625)
Sequence (P14625 whole entry): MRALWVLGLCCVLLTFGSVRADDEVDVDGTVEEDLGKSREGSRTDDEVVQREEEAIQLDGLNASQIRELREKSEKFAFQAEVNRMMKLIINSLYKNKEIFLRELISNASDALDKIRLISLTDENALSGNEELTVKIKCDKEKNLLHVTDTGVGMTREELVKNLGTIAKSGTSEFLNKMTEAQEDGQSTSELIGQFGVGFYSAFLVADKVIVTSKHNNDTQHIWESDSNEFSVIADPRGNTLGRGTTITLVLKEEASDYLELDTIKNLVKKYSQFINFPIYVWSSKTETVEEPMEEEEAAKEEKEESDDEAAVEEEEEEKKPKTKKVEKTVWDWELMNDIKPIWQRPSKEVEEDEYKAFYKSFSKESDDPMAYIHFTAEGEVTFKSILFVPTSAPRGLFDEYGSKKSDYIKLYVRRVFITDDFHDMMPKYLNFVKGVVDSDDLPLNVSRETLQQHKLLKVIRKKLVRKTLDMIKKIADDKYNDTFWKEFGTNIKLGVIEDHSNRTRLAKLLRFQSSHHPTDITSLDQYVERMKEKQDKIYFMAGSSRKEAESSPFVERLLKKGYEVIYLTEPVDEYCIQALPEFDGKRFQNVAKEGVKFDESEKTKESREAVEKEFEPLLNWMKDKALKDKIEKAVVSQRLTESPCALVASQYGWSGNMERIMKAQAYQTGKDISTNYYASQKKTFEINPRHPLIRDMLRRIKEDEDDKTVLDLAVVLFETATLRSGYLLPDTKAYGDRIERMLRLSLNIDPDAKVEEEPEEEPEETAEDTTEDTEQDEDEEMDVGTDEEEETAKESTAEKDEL
Test: Displacement of FITC-geldanamycin from N-terminal GRP94 (unknown origin) after 30 mins by fluorescence polarization competitive binding assay
Conditions: not given

Row | Compound | IC50
22 | COCCOc1ncc2c(n1)CCN(C(=O)c1cc(C(C)C)c(O)cc1O)C2 | 0.198 µM

Test system: not listed separately
Test: Apparent volume of distribution in rat at 10 mg/kg, iv measured upto 24 hrs by LC-MS/MS analysis
Type: ADME, organism-based
Conditions: in vivo, read-out: Vz

Row | Compound | Vd
23 | COCCOc1ncc2c(n1)CCN(C(=O)c1cc(C(C)C)c(O)cc1O)C2 | 86.6 L/kg

Test system: not listed separately
Test: Oral bioavailability in rat at 50 mg/kg measured upto 24 hrs by LC-MS/MS analysis
Type: ADME, organism-based
Conditions: in vivo

Row | Compound | bioavailability
24 | COCCOc1ncc2c(n1)CCN(C(=O)c1cc(C(C)C)c(O)cc1O)C2 | 7%

Test system: not listed separately
Test: AUC (0 to t) in rat at 50 mg/kg, po measured upto 24 hrs by LC-MS/MS analysis
Type: ADME, organism-based
Set-up: route oral, dose 50 mg/kg, time <=24
Conditions: in vivo

Row | Compound | AUC(0-t) at 24 h
25 | COCCOc1ncc2c(n1)CCN(C(=O)c1cc(C(C)C)c(O)cc1O)C2 | 0.265 µg·h/mL

Test system: not listed separately
Test: Apparent volume of distribution in rat at 50 mg/kg, po measured upto 24 hrs by LC-MS/MS analysis
Type: ADME, organism-based
Conditions: in vivo

Row | Compound | Vz
26 | COCCOc1ncc2c(n1)CCN(C(=O)c1cc(C(C)C)c(O)cc1O)C2 | 2072.05 L/kg

Test system: not listed separately
Test: Apparent clearance during terminal phase in rat at 10 mg/kg, iv measured upto 24 hrs by LC-MS/MS analysis
Type: ADME, organism-based
Conditions: in vivo

Row | Compound | CLz/F
27 | COCCOc1ncc2c(n1)CCN(C(=O)c1cc(C(C)C)c(O)cc1O)C2 | 14.12 L/h/kg

Test system: not listed separately
Test: Cmax in rat at 50 mg/kg, po measured upto 24 hrs by LC-MS/MS analysis
Type: ADME, organism-based
Set-up: route oral, dose 50 mg/kg, time <=24
Conditions: in vivo

Row | Compound | Cmax
28 | COCCOc1ncc2c(n1)CCN(C(=O)c1cc(C(C)C)c(O)cc1O)C2 | 0.0407 µg/mL

Test system: BT-474
Test: Antiproliferative activity against human BT-474 assessed as reduction in cell viability incubated for 72 hrs by MTT assay
Type: functional, cell-based
Conditions: BT-474, 72 h

Row | Compound | IC50
29 | COCCOc1ncc2c(n1)CCN(C(=O)c1cc(C(C)C)c(O)cc1O)C2 | 0.144 µM

Test system: not listed separately
Test: Half life in human liver microsomes at 1 uM preincubated for 5 mins followed by NADPH addition and measured up to 120 mins by LC-MS/MS analysis
Type: ADME, Microsome
Conditions: 2 h, time <=125 min

Row | Compound | t1/2
30 | COCCOc1ncc2c(n1)CCN(C(=O)c1cc(C(C)C)c(O)cc1O)C2 | 3.23 h

Test system: not listed separately
Test: Tmax in rat at 50 mg/kg, po measured upto 24 hrs by LC-MS/MS analysis
Type: ADME, organism-based
Conditions: in vivo

Row | Compound | Tmax
31 | COCCOc1ncc2c(n1)CCN(C(=O)c1cc(C(C)C)c(O)cc1O)C2 | 0.5 h

Test system: HepG2
Test: Antiproliferative activity against human HepG2 assessed as reduction in cell viability incubated for 72 hrs by MTT assay
Type: functional, cell-based
Conditions: HepG2, 72 h

Row | Compound | IC50
32 | COCCOc1ncc2c(n1)CCN(C(=O)c1cc(C(C)C)c(O)cc1O)C2 | 0.119 µM

Test system: L02
Test: Cytotoxicity against human L02 cells assessed as reduction in cell viability incubated for 72 hrs by MTT assay
Type: cell-based
Conditions: L02, 72 h

Row | Compound | IC50
33 | COCCOc1ncc2c(n1)CCN(C(=O)c1cc(C(C)C)c(O)cc1O)C2 | 27.6 µM

Test system: T47D
Test: Antiproliferative activity against human T47D assessed as reduction in cell viability incubated for 72 hrs by MTT assay
Type: functional, cell-based
Conditions: not given

Row | Compound | IC50
34 | COCCOc1ncc2c(n1)CCN(C(=O)c1cc(C(C)C)c(O)cc1O)C2 | 0.183 µM

Test system: not listed separately
Test: Half-life in rat at 10 mg/kg, iv measured upto 24 hrs by LC-MS/MS analysis
Type: ADME, organism-based
Conditions: in vivo

Row | Compound | half-life
35 | COCCOc1ncc2c(n1)CCN(C(=O)c1cc(C(C)C)c(O)cc1O)C2 | 4.16 h

Test system: not listed separately
Test: Intrinsic clearance in human liver microsomes at 1 uM preincubated for 5 mins followed by NADPH addition and measured up to 120 mins by LC-MS/MS analysis
Type: ADME, Microsome
Conditions: 2 h, time <=125 min

Row | Compound | CLint
36 | COCCOc1ncc2c(n1)CCN(C(=O)c1cc(C(C)C)c(O)cc1O)C2 | 0.293 L/h/kg

Test system: MDA-MB-468
Test: Antiproliferative activity against human MDA-MB-468 assessed as reduction in cell viability incubated for 72 hrs by MTT assay
Type: functional, cell-based
Conditions: MDA-MB-468, 72 h

Row | Compound | IC50
37 | COCCOc1ncc2c(n1)CCN(C(=O)c1cc(C(C)C)c(O)cc1O)C2 | 0.172 µM

Test system: U2OS
Test: Antiproliferative activity against human U2OS assessed as reduction in cell viability incubated for 72 hrs by MTT assay
Type: functional, cell-based
Conditions: not given

Row | Compound | IC50
38 | COCCOc1ncc2c(n1)CCN(C(=O)c1cc(C(C)C)c(O)cc1O)C2 | 0.107 µM

Reference: ChEMBL document CHEMBL4706476, “Novel Tetrahydropyrido[4,3-d]pyrimidines as Potent Inhibitors of Chaperone Heat Shock Protein 90” (J Med Chem, 2016)
